Test results as given in patent US20220175637A1, “COMPOSITION COTAINING ULTRAVIOLET WAVELENGTH-CONVERTING SUBSTANCE AND HYDROPHOBIZED SILICA AND/OR HYDROPHOBIZED STARCH” (Shiseido Company, Ltd., priority 2019, published 2022).

How the values were obtained:
Human dermal fibroblasts [1] = assay: Cell activity (AlamarBlue) of cells irradiated with UV through a solution of the UV wavelength conversion substance; format: cell-based; settings: UV 0 to 100 mJ/cm^2, FIG. 3
Procedure: The UV wavelength conversion substances (3) and (4) were dispersed in alcohol to prepare 5% and 10% dispersions.
(§1) 1. Human dermal fibroblasts and human skin keratinocytes purchased from Kurabo Industries Ltd. were used. A cell suspension (1 mL) stored in liquid nitrogen was thawed in a water bath (37° C.) to an extent that small ice pellets remained, and then diluted with 9 mL of warm medium. 2. The diluted suspension was mixed gently and then transferred to a T75 flask and incubated overnight at 37° C. 3. The next day, the medium was replaced with 10 mL of fresh medium. 4. The medium was replaced periodically (once every 2 days for fibroblasts and once every 2 to 3 days for keratinocytes) and cell proliferation was continued. Meanwhile, the cells were observed using a microscope, and it was confirmed that the cells grew in the correct form. 5. After the cells reached about 80% confluence, the cells were passaged. The cells were passaged by washing the cells once with 10 mL of warm PBS, adding 5 mL of warm trypsin to a T75 flask, covering the bottom of the flask with a trypsin solution, followed by aspirating at room temperature for 1 minute. 6. The flask was allowed to stand in an oven at 37° C. for (maximum) 2 minutes for fibroblasts and (maximum) 7 minutes for keratinocytes. The cells were observed using a microscope and confirmed to be small and oval. 7. […]

Human dermal fibroblasts [2] = assay: Restoration of cell activity decreased by UV irradiation (AlamarBlue); format: cell-based; settings: FIG. 5
Procedure: as §1, with “7. Thereafter, the side of the T75 flask was lightly tapped to release the cells.” for “7.”

C-phycocyanin
cell activity at UV irradiation (relative fluorescence intensity) (Human dermal fibroblasts [1]; 0.4% C-phycocyanin solution): the decrease in cell activity was suppressed
cell activity at UV irradiation (relative fluorescence intensity) (Human dermal fibroblasts [1]; 2% C-phycocyanin solution, compared to no UV irradiation): the cell activity was even increased
cell activity recovery effect, comparison of concentrations (Human dermal fibroblasts [2]; 0.4% versus 2% solution): equivalent at concentrations of 0.4% and 2%
cell activity of cells having activity temporarily reduced (relative fluorescence intensity) (Human dermal fibroblasts [2]; pre-irradiation 400 mJ/cm^2 without substance, then UV 0 to 200 mJ/cm^2 through 0.4% or 2% solution): cell activity was recovered
